Test results published in US5086074A, “1-aminomethyl-1,2,3,4-tetrahydronaphthalenes” (Abbott Laboratories, priority 1990, dated 1992).
Where a name gives a salt, the structure may show the parent alone.

Columns and labels:
dopamine uptake = assay: Biogenic amine uptake inhibition in rat brain synaptosomes, dopamine; format: biochemical, rat (Sprague-Dawley); conditions: tritiated amine 0.1 μM, 37° C., 4 minutes
Method: (§1) The ability of compounds of the invention to inhibit biogenic amine uptake is determined as outlined below.
(§2) Sprague-Dawley derived rats of either sex, weighing about 180-250 g, were killed by decapitation. The brains were immediately removed, placed on a glass plate chilled over crushed ice and dissected according to a modification of the method of Glowinski and Iversen (J. Neurochem. 13, 655-669, 1966). First, the rhombencephalon was separated by transverse section and discarded. The remaining tissue was bisected by a midline sagittal cut. The hypothalamus was removed using the anterior and posterior reference points, respectively. The hippocampus was peeled away and discarded and the striata were exposed and removed. Frontal cortical tissue was dissected from remaining brain structures. […] The tissues were placed in a cold Potter-Elvehjem glass homogenizer with 5 (cortex) or 10 (hypothalamus) and 20 (striatum) volumes of ice-cold 0.32M sucrose, pH 7.0 and homogenized by hand. The homogenate was centrifuged at 2500 rpm in a GLC centrifuge for 10 minutes in a refrigerated room. The supernatant fraction containing the synaptosomes was decanted, mixed thoroughly, and kept on crushed ice for use in the uptake studies.

serotonin uptake = assay: Biogenic amine uptake inhibition in rat brain synaptosomes, serotonin; format: biochemical, rat (Sprague-Dawley); conditions: tritiated amine 0.1 μM, 37° C., 4 minutes
Method: as §1, §2

norepinephrine uptake = assay: Biogenic amine uptake inhibition in rat brain synaptosomes, norepinephrine; format: biochemical, rat (Sprague-Dawley); conditions: tritiated amine 0.1 μM, 37° C., 4 minutes; read-out: Biogenic Amine Uptake Inhibition IC50 Norephinephrine
Method: as §1, §2

alpha-1-receptor = biological target: T1, alpha-1-receptor (Rattus norvegicus, UniProt P15823); assay: Radioligand binding, alpha-1 adrenoceptor, rat liver homogenates, [3H]-prazosin; conditions: rat liver homogenates, [3H]-prazosin; read-out: Ki alpha-1
T1 construct: rat liver homogenates; from tissue; host or cells: rat liver homogenate
T1 sequence (P15823 1-515): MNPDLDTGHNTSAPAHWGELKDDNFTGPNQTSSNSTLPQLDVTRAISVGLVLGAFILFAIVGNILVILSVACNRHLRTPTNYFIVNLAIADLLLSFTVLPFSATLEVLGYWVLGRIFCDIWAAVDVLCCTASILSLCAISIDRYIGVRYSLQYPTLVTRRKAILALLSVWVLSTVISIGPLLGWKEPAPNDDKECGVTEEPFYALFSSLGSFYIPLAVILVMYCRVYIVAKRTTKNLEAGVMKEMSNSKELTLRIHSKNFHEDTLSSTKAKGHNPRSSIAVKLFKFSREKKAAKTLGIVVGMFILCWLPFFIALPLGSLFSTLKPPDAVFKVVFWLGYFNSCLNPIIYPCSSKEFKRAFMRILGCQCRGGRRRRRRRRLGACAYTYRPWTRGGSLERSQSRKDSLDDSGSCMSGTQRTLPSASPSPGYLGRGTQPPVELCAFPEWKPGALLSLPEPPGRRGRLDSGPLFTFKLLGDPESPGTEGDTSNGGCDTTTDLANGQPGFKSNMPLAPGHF
Method: (§3) The compounds were assessed for alpha-adrenergic receptor subtype selectivity by use of radioligand binding techniques as described previously (DeBernardis et.al. J. Med. Chem. 28, 1398 (1985)).

alpha-2-receptor = assay: Radioligand binding, alpha-2 adrenoceptor, rat cerebral cortices, [3H]-rauwolscine; conditions: ratio Ki alpha-1/Ki alpha-2
Method: as §3

[1] = test system: intraocular pressure of rabbits; assay: Effects of topically administered compounds on intraocular pressure of rabbits; format: in vivo, rabbit (New Zealand albino); conditions: 0.3% soln., topical to cornea
Method: The effect on intraocular pressure of the compounds of the invention can be determined in rabbits by using the following method.
a. Method The intraocular pressure lowering effects of the compounds were evaluated in unanesthetized, male albino, New Zealand rabbits weighing 2.0 to 2.5 kg. The rabbits were placed in Plas Labs restraining devices for the duration of the experiment. Intraocular pressure (IOP) was measured with a Bausch and Lomb Applamatic Tonometer and recorded as the average of three individual readings at each time point in the experiment. Baseline IOP values were established at three time points separated by 30 minutes. Each compound or vehicle was applied topically to the cornea in a volume of 0.1 ml to one eye in each six rabbits. The contralateral eye was untreated. IOP was recorded at 5, 15, 30, 60 and 90 minutes after dosing.

| Molecule | Ki (alpha-1-receptor) | alpha-2 - Selectivity Ki alpha-1/Ki alpha-2 (alpha-2-receptor) | other results |
| --- | --- | --- | --- |
| 8-Fluoro-5,6-methylenedioxy-1-(3-phenylpyrrolidino-1-methyl) tetralin hydrochloride [Example 160] |  |  | IC50 (dopamine uptake): 2930 nM; IC50 (serotonin uptake): 1840 nM; IC50 (norepinephrine uptake): 991 nM |
| CN(c1ccc2c(c1)CCCC2CN1CCC(c2ccccc2)C1)S(C)(=O)=O (stereo not shown) [Example 193, 6-(N-methylmethylsulfonamido)-1-(3-phenylpyrrolidino-1methyl)tetralin hydrochloride] | 121 nM | 93 |  |
| COc1ccc2c(c1)CCC2CN1CCC(c2cccs2)C1 (stereo not shown) [Example 151, 5-Methoxy-1-(3-(2-thienyl)pyrrolidino-1-methyl) indane hydrochloride] | 177 nM | 71 |  |
| COc1ccc2c(c1)CCCC2CN1CCC(c2ccccc2)C1 (stereo not shown) [Example 121, 6-Methoxy-1-(3-phenylpyrrolidino-1-methyl) tetralin hydrochloride] | 95 nM | 95 |  |
| Nc1ccc2c(c1)CCCC2CN1CCC(c2ccccc2)C1 (stereo not shown) [Example 156, 6-Amino-1-(3-phenylpyrrolidino-1-methyl) tetralin dihydrochloride] | 125 nM | 21 |  |
| CCOc1ccc2c(c1)CCCC2CN(C)CCc1cccc(N)c1 (stereo not shown) [Example 69, 1-((N-Methylamino)methyl-N-(2-(m-aminophenyl)ethyl))6-ethoxy tetralin dihydrochloride] | 1270 nM | 98 |  |
| COc1ccc2c(c1)CCC2CN1CCC(c2cccc(F)c2)C1 (stereo not shown) [Example 153, 5-Methoxy-1-(3-(m-fluorophenyl)pyrrolidino-1-methyl) indane hydrochloride] | 58 nM | 7 |  |
| CN(CCc1cccc(F)c1)CC1CCCc2cc(O)ccc21 (stereo not shown) [Example 10, 1-((N-Methylamino)methyl-N-(2-(m-fluorophenyl)ethyl))-6-hydroxy tetralin hydrochloride] |  |  | % Change in Intraocular Pressure After Treatment Compared to Untreated Eye in Rabbits ([1]; 5 minutes): -45%; % Change in Intraocular Pressure After Treatment Compared to Untreated Eye in Rabbits ([1]; 15 minutes): -31%; % Change in Intraocular Pressure After Treatment Compared to Untreated Eye in Rabbits ([1]; 30 minutes): -25%; % Change in Intraocular Pressure After Treatment Compared to Untreated Eye in Rabbits ([1]; 60 minutes): -36%; % Change in Intraocular Pressure After Treatment Compared to Untreated Eye in Rabbits ([1]; 90 minutes): -23% |
| COc1ccc2c(c1)CCCC2CN(C)CCC1CCCS1 (stereo not shown) [Example 6h, 1-((N-methylamino)methyl-N-(2-(2-tetrahydrothienyl)ethyl)) 6-methoxy tetralin hydrochloride] | 1510 nM | 430 |  |
| Fc1ccc2c(c1)CCCC2CN1CCC(c2ccccc2)C1 (stereo not shown) [Example 148, 6-Fluoro-1-(3-phenylpyrrolidino-1-methyl) tetralin methanesulfonate] | 126 nM | 19 |  |
| CN(CCc1ccccc1)CC1CCCc2cc(O)ccc21 (stereo not shown) [11 (HCl salt)] |  |  | % Change in Intraocular Pressure After Treatment Compared to Untreated Eye in Rabbits ([1]; 5 minutes): -38%; % Change in Intraocular Pressure After Treatment Compared to Untreated Eye in Rabbits ([1]; 15 minutes): -55%; % Change in Intraocular Pressure After Treatment Compared to Untreated Eye in Rabbits ([1]; 30 minutes): -54%; % Change in Intraocular Pressure After Treatment Compared to Untreated Eye in Rabbits ([1]; 60 minutes): -44%; % Change in Intraocular Pressure After Treatment Compared to Untreated Eye in Rabbits ([1]; 90 minutes): -20% |
| c1ccc(C2CCN(CC3CCCc4c3ccc3c4OCO3)C2)cc1 (stereo not shown) [Example 143a, 5,6-Methylenedioxy-1-(3-phenylpyrrolidino-1-methyl) tetralin methanesulfonate] | 51 nM | 43 |  |
| COc1ccc(C)c2c1CCCC2CN(C)CCc1cccs1 (stereo not shown) [Example 36, 1-((N Methylamino)methyl-N-(2-(2-thienyl)ethyl))-5-methoxy-8-methyl tetralin hydrochloride] | 655 nM | 95 |  |
| COc1cccc2c1CCCC2CN1CCC(c2cccs2)C1 (stereo not shown) [Example 146, hydrochloride] | 170 nM | 35 |  |
| CN(CCc1cccs1)CC1CCCc2c(Cl)cccc21 (stereo not shown) [Example 129, 1-((N-Methylamino)methyl-N-(2-(2-thieny)ethyl))5-chloro tetralin hydrochloride] | 198 nM | 55 |  |
